According to patent US9422238B2, “ICMT inhibitors” (National University of Singapore, priority 2012, dated 2016):
Where “and” joins values, the source holds several entries; their conditions need not be identical. Identical values can stand only once. Entries after “also recorded” stand apart in the source; their conditions may differ. Like-named read-outs stand apart in the source and are kept apart here.

Assays:
[1] = Parallel Artificial Membrane Permeability Assay (PAMPA); details: for Papp at 16 h: PAMPA, pH 7.4
Method: Briefly, determinations were carried out on MultiScreen-IP PAMPA assay (donor) plates (MAIPNTR10) and MultiScreen Receiver Plates (MATRNPS50) from Millipore Corporation (USA) with 1% lecithin (L-α-phosphatidylcholine from lyophilized powder of egg yolk, Sigma Aldrich, USA) in dodecane (ReagentPlus®, Sigma Aldrich, USA) as lipid barrier. 5 μL of 1% lecithin in dodecane was dispensed into the wells of the donor plates. […] The mobile phase was Milli-Q water (0.1% formic acid) and acetonitrile (0.1% formic acid), run on gradient.
Pe was obtained from Equation 1:
[formula] Where VA and VD are the volumes of acceptor (cm^3) and donor (cm^3) wells respectively, A is the area of the surface area of the membrane (0.24 cm^2), t is the permeation time (s); S is the fraction of sample remaining in the donor and acceptor wells after permeation time and is determined from Equation 2, CA and CD are the concentrations (μM) of test/reference compound in acceptor and donor wells respectively.
The Pe of each compound was obtained from at least 3 separate experiments using no less than 2 different stock solutions. For each independent determination, triplicates (3 wells) were run for each compound.

[2] = tested on: PC3 cells; assay: Colony formation (clonogenic) assay; type: cell-based, human; details: PC3, 2 weeks; 8-12 1-3 μM, cysmethynil 15-25 μM
Method: A flask ([…]) of PC3 cells in media (DMEM high glucose, 10% fetal bovine serum, 50 μg/mL penicillin, 50 μg/mL streptomycin) was grown to 80-90% confluency. The media was removed by pipetting and the cell layer washed with 1×PBS (5 mL). An aliquot of trypsin (1 mL, 0.25% trypsin-EDTA (1×)-phenol red, Invitrogen) was added to the plate, tapped gently for even distribution and incubated at 37° C., 5% CO2 for 1 min. The plate was quickly viewed under the microscope to confirm that cells have rounded up. Media (10 mL) was then added and the cell suspension transferred to a falcon tube (15 mL). An aliquot (10 μl) was transferred to a hemocytometer for cell counting. The suspension was then diluted to give the desired seeding concentration of 1000 cells per well in a 6-well plate. After seeding, the plate was gently tapped to help cells spread out within the wells. Plates were then incubated for 2 h (37° C., 5% CO2) for cell attachment to take place. The media was removed with a pipette, the cell layer in the well washed with PBS and replaced by a solution of the test compound in 2 mL of DMEM (containing 5% FBS, instead of 10% FBS). Test compounds were prepared in DMSO stock solutions. The final concentration of DMSO in the well was 0.05% v/v. Control plates were also prepared in which no test compound was added but with DMSO maintained at 0.05%. […]

[3] = tested on: Human lung fibroblast IMR90 cells; assay: Cell viability on non-malignant cells (MTS, 72 h); type: cell-based
Method: Cell viability was determined from the expression:
The plot was constrained to ≧0 and ≦100%.
Human lung fibroblast IMR90 cells were purchased from ATCC (Rockville, Md.) and grown in Eagle's Minimal Essential Media (EMEM, Sigma Aldrich, Singapore) at 37° C., 5% CO2. […] Seeding density was maintained at 4000 cells per well.

[4] = tested on: PC3 cells; assay: Cell cycle analysis by flow cytometry; type: cell-based, human; details: PC3, 48 h
Method: PC3 cells were seeded at 100 000 cells/mL per well in 6-well plates with media DMEM (high glucose, 10% FBS, 50 μg/mL penicillin, 50 μg/mL streptomycin) and incubated (24 h, 37° C., 5% CO2) to allow cell attachment after which they were treated with test compound (in DMEM, high glucose, 5% FBS, 50 μg/mL penicillin, 50 μg/mL streptomycin) for 48 h. Final volume of DMSO per well was 0.05% v/v. Control wells (without test compound) were similarly treated. After the specified time, supernatant in the well was collected; the cell pellet was trypsinized, combined with the supernatant and pelleted by centrifugation (150 g, 5 min). After rinsing the pellet twice with ice-cold 1×PBS, the cells were suspended in 0.3 mL PBS, to which was added dropwise and with gentle shaking, cold ethanol (0.7 mL) to give a final concentration of 70% ethanol. The cell sample was then kept at 4° C. overnight after which it was centrifuged (150 g, 5 min), the supernatant was removed, the pellet rinsed with cold PBS and re-suspended in a solution of 100 μg/mL propidium iodide (PI, Sigma Aldrich, Singapore) and 0.1 mg/mL ribonuclease A (Sigma Aldrich, Singapore) in PBS (500 μL). The suspension was kept in the dark for 1 h, 25° C. (room temperature) before being analyzed for distribution in the G1,S, G2/M phases on a FCS500 flow cytometer (Beckman Coulter, CA) using the FlowJo® software (http: http://www.flowjo.com/) Each test compound was evaluated at 4 concentrations with 2 repeats per concentration.

[5] = tested on: HepG2 xenografts; assay: In vivo activity on xenograft bearing mice; details: for deaths during the treatment period: 8 mice
Method: HepG2 cells were grown in DMEM and 10% FBS until near confluence and then harvested after trypsinization. […] The vehicle was ethanol-PEG400-dextrose solution as described in 5.2.1. The animals were monitored daily for changes in their general appearance, weight and tumor volume. Tumor volume was calculated using the formula: […]. Length (L) and width (W) of the tumor were measured with a digital vernier caliper and reported to 2 decimal places. The shorter of the 2 distances was taken as width. The mice were monitored—for 25-days after which they were euthanized with CO2, the tumors removed by dissection and weighed.

[6] = tested on: human pancreatic cancer MIA PACA II cells; assay: Cell viability (MTS); type: cell-based; details: MIA PaCa-2, Table 6, N = 2
Method: Human hepatocellular carcinoma HepG2 and human pancreatic cancer MIA PACA II cells were obtained from ATCC (Rockville, Md.). They were grown in DMEM (high glucose, Invitrogen) supplemented with 10% FBS, 50 μg/mL penicillin and 50 μg/mL streptomycin, 37° C., 5% CO2 until they reached 80-90% confluency, after which they were subcultured. Passage numbers were kept within 7-14 passages for both cell types.

[7] = IMR-90, further testing, 72 h, mean (SD), read-out: IC50 IMR90

CCCCCCCCn1cc(CN(CC)CC)c2cc(-c3cnc(N)nc3)ccc21 [Compound 8-12, 5-(3-Diethylaminomethyl-1-octyl-1H-indol-5-yl)-pyrimidin-2-ylamine]
Papp at 16 h [1]: 14.2 ×10⁻⁶ cm/s
PAMPA Pe (×10^−6 cm/s) ([1]; pH 7.4, 16 h agitation, 1% lecithin in dodecane): 14.2 ×10^−6 cm/s and 14.2 (±1.4) ×10^−6 cm/s
colony formation [2]: colony formation was evident only at the lowest concentration of 1 μM and not at higher concentrations (1.5 to 3 μM)
IC50 ([3]; IMR-90, Table 6, mean (SD), read-out: IC50 (μM) IMR90): 2.65 µM
IC50 [3, 7]: 2.65 µM
effect on cell cycle distribution [4]: increased cells in the G1 phase while decreasing cells in G2 phase
% Cells in G1 phase ([4]; 0.8 μM): 52.92 (2) %
% Cells in G2 phase ([4]; 0.8 μM): 24.22 (2) %
% Cells in G1 phase ([4]; 1.0 μM): 59.98 (2)^3%
% Cells in G2 phase ([4]; 1.0 μM): 26.99 (2.77, 3) %
% Cells in G1 phase ([4]; 2.0 μM): 66.45 (2)^3%
% Cells in G2 phase ([4]; 2.0 μM): 11.20 (2)^3%
deaths during the treatment period ([5]; 15 mg/kg IP daily, 25 days): one animal died
deaths during the treatment period ([5]; 30 mg/kg IP daily, 25 days): Three deaths
reduction in relative tumor volume ([5]; 15 and 30 mg/kg IP daily, p<0.05 vs control): Significant reduction in tumor volume was evident from Day 5 onwards for animals receiving 30 mg/kg and Day 7 onwards for animals receiving 15 mg/kg; also recorded: Reduction in tumor volume was significant from Day 5 and Day 7 onwards for animals dosed with 30 mg/kg and 15 mg/kg respectively
weight of excised tumors vs control ([5]; after 25 days): significant weight loss compared to control
IC50 [6]: 1.6 µM

CCCCCCCCn1c2c(c3cc(-c4cnc(N)nc4)ccc31)CN(C)CC2 [Compound 305, 8-(2′-amino-pyrimidin-5′-yl)-2-methyl-5-n-octyl-1,2,3,4-tetrahydropyrido[4,3-b]indole]
Papp at 16 h [1]: 19.7 ± 0.56 ×10⁻⁶ cm/s
IC50 [3, 7]: 5.29 µM

CCCCCCCCn1cc(CC(N)=O)c2cc(-c3cccc(C)c3)ccc21 [Cysmethynil, 2-[5-(3-methylphenyl)-1-octyl-1H-indolo-3-yl]acetamide, reference compound]
colony formation [2]: Colony formation was observed with 15 μM cysmethynil but not at higher concentrations (17.5 to 25 μM)
effect on cell cycle distribution [4]: the changes in G1/G2 cell populations were not statistically significant
% Cells in G1 phase ([4]; 12.5 μM): 53.0 (2) %
% Cells in G2 phase ([4]; 12.5 μM): 27.87 (2) %
% Cells in G1 phase ([4]; 17.5 μM): 51.83 (2) %
% Cells in G2 phase ([4]; 17.5 μM): 26.85 (12.28, 3) %
% Cells in G1 phase ([4]; 20.0 μM): 54.85 ( 2) %
% Cells in G2 phase ([4]; 20.0 μM): 32.07 (2) %
body weight change ([5]; xenograft-bearing mice, 25 days): Weight loss was observed up to Day 11
IC50 [6]: 22.5 µM
